Results published in US20260258039A1, “AROMATIC COMPOUND, METHOD FOR PREPARING SAME, AND USE THEREOF IN PREPARATION OF ESTROGEN RECEPTOR DEGRADER” (Hinova Pharmaceuticals Inc., priority 2022, published 2026).
Like-named read-outs stand apart in the source and are kept apart here.

Experiments:
Format in all cases: cell-based
ER [1] = biological target: T1, ER (Homo sapiens, UniProt P03372); test: Degradation activities on ER (ELISA) in T47D breast cancer cells; settings: for DC50: concentration required to degrade 50% of the target protein
T1 construct: T47D breast cancer cells were subcultured in cell culture medium; endogenous in cells; host or cells: T47D breast cancer cells
T1 sequence (P03372 1-595): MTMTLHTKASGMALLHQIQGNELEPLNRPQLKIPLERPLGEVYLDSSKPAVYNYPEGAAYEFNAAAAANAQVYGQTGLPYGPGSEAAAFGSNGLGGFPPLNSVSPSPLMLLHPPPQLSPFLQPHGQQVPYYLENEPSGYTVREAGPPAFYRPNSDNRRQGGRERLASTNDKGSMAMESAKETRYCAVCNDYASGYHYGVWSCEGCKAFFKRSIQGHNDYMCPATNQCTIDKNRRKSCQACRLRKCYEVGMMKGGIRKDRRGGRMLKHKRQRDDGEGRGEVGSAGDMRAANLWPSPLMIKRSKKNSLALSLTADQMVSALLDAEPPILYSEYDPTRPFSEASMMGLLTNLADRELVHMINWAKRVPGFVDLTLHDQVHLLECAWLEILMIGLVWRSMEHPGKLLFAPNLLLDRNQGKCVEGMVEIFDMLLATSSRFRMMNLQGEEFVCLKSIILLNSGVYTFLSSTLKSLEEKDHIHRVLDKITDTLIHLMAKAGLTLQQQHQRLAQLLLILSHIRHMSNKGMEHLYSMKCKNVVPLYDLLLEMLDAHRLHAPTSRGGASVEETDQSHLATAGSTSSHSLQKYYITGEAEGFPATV
Method in brief: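 Cellular ER degradation ELISA: compound dosed 24 h on T47D cells (2.5×10^4/well, pre-grown 3 days) at six final levels from 100 nM downward. Remaining ER was detected by HRP-TMB absorbance at 450 nm. Dose-response fitting gave DC50 and Dmax, the maximal percentage degraded.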

ER [2] = biological target: T1, ER; test: Degradation activities on ER (Western blotting) in T47D breast cancer cells; settings: 24 h, Western blot
Method: T47D breast cancer cells were subcultured in cell culture medium, and the cells in good growth condition were seeded into 6-well plate at 2 mL/well, with 2.5×10^5 cells per well. The cells were incubated overnight in a 37° C. incubator under 5% CO2. The drug was prepared into 10 mM stock solution with dimethyl sulfoxide (DMSO). Prior to use, the stock solution was diluted with DMSO in a ratio of 1:3. […] of the diluted compound was added to the cell culture wells (to ensure a DMSO concentration of 0.1% in the culture system), and each concentration was repeated twice. The plate were gently shaken to mix. Additionally, the negative control wells (containing equal amount of DMSO) and the positive control wells were set up. After 24 hours of culture, the cells were lysed with RIPA cell lysis buffer to extract proteins, and the protein concentration was measured using a BCA kit. The protein loading buffer (5×) was added, and the plate was heated at 100° C. for 5 min. Then, the sample was stored at −20° C. […] of protein collected from each well was loaded onto a polyacrylamide gel for electrophoresis. The protein is transferred from the polyacrylamide gel to a PVDF membrane, blocked with 5% skim milk at room temperature for 1 h, and incubated overnight at 4° C. with primary antibodies Anti-ERα rabbit mAb (CST, Cat #: 8644S) and Anti-GAPDH rabbit mAb (CST, Cat #: 2118L). The membrane was washed three times with TBST solution, with 10 min for each time. The secondary antibody (horseradish peroxidase-labeled goat anti-rabbit IgG) was incubated at room temperature for 2 h, and then the membrane was washed three times with TBST solution, with 10 min for each time. Finally, ECL chromogenic solution was added for color development, and an automatic chemiluminescence instrument was used to take pictures. Images were collected and analyzed.
The degradation activities of the compounds according to the present invention towards ER, as tested by western blotting, are presented in Table 2

[3] = tested on: MCF-7 breast cancer cells; test: Inhibition of proliferation of MCF-7 breast cancer cells (agarose culture, CellTiter-Glo 3D); settings: Homo sapiens, MCF7, 360 h
Method: After 1.6% agarose and 0.7% agarose were sterilized at high temperature, they were cooled to around 50° C., and placed in a 42° C. water bath for later use. MCF-7 breast cancer cells were subcultured in complete cell culture medium, and cells in good growth condition were digested and counted for future use. 50 µL of 1.6% agarose mixed with 2× culture medium at a ratio of 1:1 was spread into the bottom of 96-well plate, and allowed to cool and solidify. 0.7% agarose was mixed with diluted cell suspension in a ratio of 1:1, and then 50 µL of the mixture of gel and cells was added to each well, with 2000 cells for each well; the mixture was allowed to cool and solidify at room temperature. 50 μL of culture medium was added to the plate containing cells, and the plate was placed in a 37° C., 5% CO2 incubator and cultured for 24 h. The drug was prepared into 10 mM stock solution with dimethyl sulfoxide (DMSO). The stock solution was diluted in a ratio of 1:3, to obtain 9 concentration gradients. Then, each concentration of compound solution was further diluted with culture medium in 1:250 (to ensure a DMSO concentration of 0.1% in the culture system). Two replicate wells was set for each concentration. 50 μL of the diluted compound solution was added to the cell culture wells (with final concentrations of 10 μM, 3.3 μM, 1.1 μM, 0.37 μM . . . ). The plate was gently shaken for mixing. Additionally, 3 negative control wells only containing cells and 3 blank control wells only containing culture medium were set up (each of the 6 wells was added with 50 μL of DMSO diluted with culture medium in a ration of 1:250). After 15 days of cultivation, the cell plates and CellTiter-Glo 3D Cell Viability were taken out and equilibrated to room temperature in advance. 80 μL of culture medium were aspirated and discarded from the cell plate, and 120 µL of CellTiter-Glo 3D Cell Viability solution was added to each well. The plates were centrifuged at 1200 rpm/min for 5 min, and then placed in the dark and kept for 25 min. The […] were measured using a multi-function microplate reader. The data were analyzed using the Dose-response-inhibition equation in GraphPad Prism8 software, and the IC50 values were obtained, as shown in Table 3.

[4] = T47D cells, 24 h, ELISA, maximum percentage of target protein degraded, read-out: Dmax
[5] = MCF-7 cells, 15 days of cultivation, read-out: IC50

SMILES	DC50 (ER [1]; T47D cells, 24 h, ELISA) [nM]	Dmax (ER [1]; [4]) [%]	Percentage reduction of ER (ER [2]; compound concentration 10 nM) [%]	also measured
O=C1CCC(N2C(=O)c3ccc(N4CCC(CN5CCC6(CC5)CN(c5ccc([C@@H]7c8ccc(O)cc8CC[C@@H]7c7ccccc7)cc5)C6)CC4)cc3C2=O)C(=O)N1 (stereo partly shown) [Example 1]	< 10	50 to 75	71	
O=C1CCC(N2Cc3cc(N4CCC5(CCN(CC6CCN(c7ccc([C@@H]8c9ccc(O)cc9CC[C@@H]8c8ccccc8)cc7)CC6)C5)C4)ccc3C2=O)C(=O)N1 (stereo partly drawn) [Example 2, 3-(5-(7-((1-(4-((1R,2S)-6-hydroxyl-2-phenyl-1,2,3,4-tetrahydronaphthalen-1-yl)phenyl)piperidin-4-yl)methyl)-2,7-diazaspiro[4.4]nonane-2-yl)-1-oxoisoinodolin-2-yl)piperidin-2,6-dione]	> 100	< 50		Percentage reduction of ER (ER [2]; compound concentration 1 nM): 53%
O=C1CCC(N2Cc3cc(N4CCC(N5CC6(CCN(c7ccc([C@@H]8c9ccc(O)cc9CC[C@@H]8c8ccccc8)cc7)CC6)C5)CC4)ccc3C2=O)C(=O)N1 (stereo partly shown) [Example 12]	10 to 50		84	Dmax (ER [1]; T47D): > 75%
O=C1CCC(N2C(=O)c3ccc(N4CC5CN(CC6CCN(c7ccc([C@@H]8c9ccc(O)cc9CC[C@@H]8c8ccccc8)cc7)CC6)CC5C4)cc3C2=O)C(=O)N1 (stereo partly drawn) [Example 25, 2-(2,6-dioxopiperidin-3-yl)-5-(5-((1-(4-((1R,2S)-6-hydroxyl-2-phenyl-1,2,3,4-tetrahydronaphthalen-1-yl)phenyl)piperidin-4-yl)methyl)hexahydropyrrolo[3,4-c]pyrrole-2(1H)-yl)isoinodolin-1,3-dione]	> 100	< 50	47	
O=C1CCC(N2Cc3cc(N4CC5(CN(CC6CCN(c7ccc([C@H]8c9ccc(O)cc9OC[C@H]8c8ccccc8)cc7)CC6)C5)C4)ccc3C2=O)C(=O)N1 (stereo partly drawn) [Example 56, 3-(5-(6-((1-(4-((3R,4S)-7-hydroxyl-3-phenyl-chroman-4-yl)phenyl)piperidin-4-yl)methyl)-2,6-diazaspiro[3.3]heptane-2-yl)-1-oxoisoinodolin-2-yl)piperidin-2,6-one]				Percentage reduction of ER (ER [2]; compound concentration 1 nM): 59%
O=C1CCC(N2Cc3cc(N4CC(N5CCN(c6ccc([C@@H]7c8ccc(O)cc8CC[C@@H]7c7ccccc7)cc6)CC5)C4)ccc3C2=O)C(=O)N1 (stereo partly drawn) [Example 59, 3-(5-(3-(4-(4-((1R,2S)-6-hydroxyl-2-phenyl-1,2,3,4-tetrahydronaphthalen-1-yl)phenyl)piperazine-1-yl)azetidin-1-yl)-1-oxoisoindol-2-yl)piperidin-2,6-dione]			54	
O=C1CCC(N2Cc3cc(N4CC5(CCN(CC6CCN(c7ccc([C@@H]8c9ccc(O)cc9OC[C@@H]8c8cccc(F)c8)cc7)CC6)CC5)C4)ccc3C2=O)C(=O)N1 (stereo partly drawn) [Example 60, 3-(5-(7-((1-(4-((3,4-cis)-3-(3-fluorophenyl)-7-hydroxyl-chroman-4-yl)phenyl)piperidin-4-yl)methyl)-2,7-diazaspiro[3.5]nonane-2-yl)-1-oxoisoindol-2-yl)piperidin-2,6-dione]	< 10			Dmax (ER [1]; T47D): 50 to 75%; IC50 [3]: < 10 nM
O=C1CC[C@@H](N2Cc3cc(N4CC5(CCN(CC6CCN(c7ccc([C@@H]8c9ccc(O)cc9OC[C@@H]8c8c(F)cccc8F)cc7F)CC6)CC5)C4)ccc3C2=O)C(=O)N1 [Example 74, (R)-3-(5-(7-((1-(4-((3S,4R)-3-(2,6-difluorophenyl)-7-hydroxychroman-4-yl)-2-fluorophenyl)piperidin-4-yl)methyl)-2,7-diazaspiro[3.5]nonane-2-yl)-1-oxoisoinodolin-2-yl)piperidin-2,6-dione]	> 100	< 50		IC50 [3, 5]: > 50 nM
O=C1CC[C@H](N2Cc3cc(N4CC5(CCN(CC6CCN(c7ccc([C@@H]8c9ccc(O)cc9OC[C@@H]8c8c(F)cccc8F)cc7F)CC6)CC5)C4)ccc3C2=O)C(=O)N1 [Example 75, (S)-3-(5-(7-((1-(4-((3S,4R)-3-(2,6-difluorophenyl)-7-hydroxychroman-4-yl)-2-fluorophenyl)piperidin-4-yl)methyl)-2,7-diazaspiro[3.5]nonane-2-yl)-1-oxoisoinodolin-2-yl)piperidin-2,6-dione]	< 10	> 75		IC50 [3, 5]: < 10 nM
O=C1CCC(N2Cc3cc(N4CC5(CCN(CC6CCN(c7ccc(C8=C(c9c(F)cccc9F)COc9cc(O)ccc98)cc7F)CC6)CC5)C4)ccc3C2=O)C(=O)N1 (stereo not shown) [Example 76, 3-(5-(7-((1-(4-(3-(2,6-difluorophenyl)-7-hydroxyl-2H-chromene-4-yl)-2-fluorophenyl)piperidin-4-yl)methyl)-2,7-diazaspiro[3.5]nonane-2-yl)-1-oxoisoinodolin-2-yl)piperidin-6-dione]	< 10	> 75		IC50 [3, 5]: < 10 nM
O=C1CCC(N2C(=O)c3ccc(N4CC5(CCN(CC6CCN(c7ccc([C@H]8c9ccc(O)cc9OC[C@H]8c8ccccc8)cc7)CC6)CC5)C4)cc3C2=O)C(=O)N1 (stereo partly drawn) [Example 80, 2-(2,6-dioxopiperidin-3-yl)-5-(7-((1-(4-((3R,4S)-7-hydroxyl-3-phenylchroman-4-yl)phenyl)piperidin-4-yl)methyl)-2,7-diazaspiro[3.5]nonane-2-yl)isoinodolin-1,3-dione]				Percentage reduction of ER (ER [2]; compound concentration 1 nM): 50%
O=C1CCC(N2Cc3cc(N4CC5CN(CC6CCN(c7ccc([C@H]8c9ccc(O)cc9OC[C@H]8c8ccccc8)cc7)CC6)CC5C4)ccc3C2=O)C(=O)N1 (stereo partly drawn) [Example 82, 3-(5-(5-((1-(4-((3R,4S)-7-hydroxyl-3-phenylchroman-4-yl)phenyl)piperidin-4-yl)methyl)hexahydropyrrolo[3,4-c]pyrrole-2(1H)-yl)-1-oxoisoinodolin-2-yl)piperidin-2,6-dione]			49	
